Results reported in ChEMBL document CHEMBL1201862, “PubChem BioAssay data set” (2004).
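Protocol summary: plate cells (96-well), add compound at 5 concentrations, incubate 48 h, interpolate endpoints linearly. GI50 is the concentration that inhibits growth by half.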 The source made the active and inactive calls. Rule as the data show it: active = GI50 up to about 1.1 µM and inactive = higher.

What was measured:
Experiment in all cases: NCI-60 cell line screen, 48 h
[1] = test system: NCI-H522
[2] = test system: HCT-116
[3] = test system: Malme-3M
[4] = test system: OVCAR-8
[5] = test system: KM12
[6] = test system: MCF7
[7] = test system: HCC 2998
[8] = test system: NCI-H23
[9] = test system: IGROV-1
[10] = test system: SF-539
[11] = test system: SW-620
[12] = test system: SNB-19
[13] = test system: TK-10
[14] = test system: ACHN
[15] = test system: UACC-62
[16] = test system: NCI-H226
[17] = test system: UO-31
[18] = test system: LOX IMVI
[19] = test system: UACC-257
[20] = test system: U-251

Compound	GI50 [1]	GI50 [2]	GI50 [3]	GI50 [4]	GI50 [5]	GI50 [6]	GI50 [7]	GI50 [8]	GI50 [9]	GI50 [10]	GI50 [11]	GI50 [12]	GI50 [13]	GI50 [14]	GI50 [15]	GI50 [16]	GI50 [17]	GI50 [18]	GI50 [19]	GI50 [20]
CC1(C)CC(=O)C2=C(C1)C(c1ccccc1Cl)C1C(=O)CC(C)(C)CC1(O)O2 (stereo unspecified)	> 100 µM (inactive)	26.9 µM (inactive)	> 100 µM (inactive)	> 86.7 µM (inactive)	> 100 µM (inactive)	37.3 µM (inactive)	> 100 µM (inactive)	> 100 µM (inactive)	> 100 µM (inactive)	69 µM (inactive)	43.7 µM (inactive)	> 100 µM (inactive)	> 100 µM (inactive)	> 100 µM (inactive)	> 64.7 µM (inactive)	> 100 µM (inactive)	> 100 µM (inactive)	> 68.2 µM (inactive)	> 49.9 µM (inactive)	> 100 µM (inactive)
COC(=O)c1sc(=O)sc1SCc1cccc(CSc2sc(=O)sc2C(=O)OC)c1	29 µM (inactive)	56.1 µM (inactive)	18.7 µM (inactive)	37.2 µM (inactive)	> 100 µM (inactive)	9.33 µM (inactive)	53.7 µM (inactive)	52.6 µM (inactive)	30.7 µM (inactive)		> 100 µM (inactive)	22.3 µM (inactive)	23.2 µM (inactive)	30 µM (inactive)	33.7 µM (inactive)	61.4 µM (inactive)	64.6 µM (inactive)	> 100 µM (inactive)	70.5 µM (inactive)	17.4 µM (inactive)
CC1(C)OCC(/C=C\C(O)CC2(C)OCCO2)CO1 (stereo unspecified)	> 100 µM (inactive)	> 100 µM (inactive)		> 100 µM (inactive)	> 100 µM (inactive)	> 100 µM (inactive)	> 100 µM (inactive)		> 100 µM (inactive)	> 100 µM (inactive)	> 100 µM (inactive)	> 100 µM (inactive)	> 100 µM (inactive)	> 100 µM (inactive)	> 100 µM (inactive)	> 100 µM (inactive)	> 100 µM (inactive)	> 100 µM (inactive)	> 100 µM (inactive)	> 100 µM (inactive)
OCC(O)COCn1nncc1Cn1ncc2c(SCc3ccccc3)ncnc21 (stereo unspecified)	8.89 µM (inactive)	> 100 µM (inactive)		> 100 µM (inactive)	> 100 µM (inactive)	> 100 µM (inactive)	> 100 µM (inactive)	> 100 µM (inactive)	> 100 µM (inactive)	> 100 µM (inactive)	> 100 µM (inactive)	> 100 µM (inactive)	> 100 µM (inactive)	> 100 µM (inactive)	> 100 µM (inactive)		> 100 µM (inactive)	> 100 µM (inactive)	> 100 µM (inactive)	> 100 µM (inactive)
CC(C)[C@H](NC(=O)[C@@H](O)[C@H](N)Cc1ccccc1)C(=O)N[C@@H](Cc1ccccc1)C(=O)O	> 100 µM (inactive)	> 100 µM (inactive)	> 100 µM (inactive)	> 100 µM (inactive)	> 100 µM (inactive)	> 100 µM (inactive)	> 100 µM (inactive)	> 100 µM (inactive)	> 100 µM (inactive)		> 100 µM (inactive)	> 100 µM (inactive)	> 100 µM (inactive)	> 100 µM (inactive)	> 100 µM (inactive)	> 100 µM (inactive)	> 100 µM (inactive)	> 100 µM (inactive)	> 100 µM (inactive)	> 100 µM (inactive)
Cc1cc(-c2nc3ccc(F)cc3s2)ccc1NC(=O)[C@H](C)N	7.74 µM (inactive)	3.28 µM (inactive)	21.3 µM (inactive)	11.6 µM (inactive)	3.97 µM (inactive)	< 0.0186 µM (active)	0.428 µM (active)	12.9 µM (inactive)	2 µM (inactive)	6.32 µM (inactive)	3.83 µM (inactive)	14.3 µM (inactive)		9.33 µM (inactive)	1.88 µM (inactive)	2.7 µM (inactive)	4.14 µM (inactive)	1.99 µM (inactive)	5.04 µM (inactive)	3.48 µM (inactive)
C/C(=N/NC(=S)N(Cc1ccccn1)Cc1ccccn1)c1cnccn1	0.0381 µM (active)	0.33 µM (active)	0.0472 µM (active)	0.0303 µM (active)	0.427 µM (active)	0.565 µM (active)	2.69 µM (inactive)	0.731 µM (active)	0.288 µM (active)		0.288 µM (active)	0.962 µM (active)	0.071 µM (active)	0.306 µM (active)	0.537 µM (active)	< 0.0178 µM (active)		0.133 µM (active)	0.47 µM (active)	0.129 µM (active)
Cc1cc2nc3[nH]nc(N)c3nc2cc1C	> 100 µM (inactive)	> 100 µM (inactive)	> 100 µM (inactive)	88.7 µM (inactive)	> 100 µM (inactive)	> 100 µM (inactive)	> 100 µM (inactive)	> 100 µM (inactive)	> 100 µM (inactive)		> 100 µM (inactive)	> 100 µM (inactive)	> 100 µM (inactive)	> 100 µM (inactive)	> 100 µM (inactive)	17.7 µM (inactive)	> 100 µM (inactive)	> 100 µM (inactive)	> 100 µM (inactive)	> 100 µM (inactive)
CC(=O)NCCCCN(CCCNC(C)=O)C(=O)CNS(=O)(=O)c1cccc2c(N(C)C)cccc12	> 100 µM (inactive)	> 100 µM (inactive)	> 100 µM (inactive)			> 100 µM (inactive)	> 100 µM (inactive)	> 100 µM (inactive)	> 100 µM (inactive)	> 100 µM (inactive)	> 100 µM (inactive)	> 100 µM (inactive)	> 100 µM (inactive)	> 100 µM (inactive)	> 100 µM (inactive)	> 100 µM (inactive)	> 100 µM (inactive)	> 100 µM (inactive)	> 100 µM (inactive)	> 100 µM (inactive)
O=C1CN(c2ccc(Cl)cc2)C(=O)CN1CCN1CC(=O)N(c2ccc(Cl)cc2)CC1=O	> 100 µM (inactive)	> 100 µM (inactive)	> 100 µM (inactive)	> 100 µM (inactive)	> 100 µM (inactive)	> 100 µM (inactive)	> 100 µM (inactive)	> 100 µM (inactive)	> 100 µM (inactive)		> 100 µM (inactive)	> 100 µM (inactive)	> 100 µM (inactive)	> 100 µM (inactive)	> 100 µM (inactive)		> 100 µM (inactive)		> 100 µM (inactive)	> 100 µM (inactive)
Cc1cn2c(/C=N/NC(=N)N)c(-c3cccc([N+](=O)[O-])c3)nc2s1	2.08 µM (inactive)	0.366 µM (active)	1.96 µM (inactive)	1.78 µM (inactive)	0.647 µM (active)	0.625 µM (active)	0.839 µM (active)	2.39 µM (inactive)	5.56 µM (inactive)	1.98 µM (inactive)	0.661 µM (active)		2.21 µM (inactive)	1.67 µM (inactive)	1.69 µM (inactive)	1.91 µM (inactive)	5.62 µM (inactive)	0.849 µM (active)	2.11 µM (inactive)	1.6 µM (inactive)
O=[N+]([O-])c1ccc(SN=S=NSc2cccc(SN=S=NSc3ccc([N+](=O)[O-])cc3)c2)cc1	15.8 µM (inactive)	29.7 µM (inactive)	28.1 µM (inactive)	22.4 µM (inactive)	34.2 µM (inactive)	24.6 µM (inactive)	> 100 µM (inactive)		39.8 µM (inactive)		20.4 µM (inactive)	38.5 µM (inactive)		42.3 µM (inactive)	37.8 µM (inactive)		23.8 µM (inactive)	17.2 µM (inactive)	45.3 µM (inactive)	16.4 µM (inactive)
CCOC(=O)c1ccc(OCc2nc3cc(C(F)(F)F)ccc3nc2-c2ccccc2)cc1	> 100 µM (inactive)	> 100 µM (inactive)		> 100 µM (inactive)	> 100 µM (inactive)	> 100 µM (inactive)	> 100 µM (inactive)	> 100 µM (inactive)	> 100 µM (inactive)	> 100 µM (inactive)	> 100 µM (inactive)	> 100 µM (inactive)	> 100 µM (inactive)	> 100 µM (inactive)	> 100 µM (inactive)	> 100 µM (inactive)	> 100 µM (inactive)	> 100 µM (inactive)	> 100 µM (inactive)	> 100 µM (inactive)
N/N=C(\Nc1ccccc1)SCc1ccccc1	> 100 µM (inactive)	> 100 µM (inactive)	> 100 µM (inactive)	> 100 µM (inactive)	> 100 µM (inactive)	> 100 µM (inactive)	> 100 µM (inactive)	> 100 µM (inactive)	> 100 µM (inactive)	> 100 µM (inactive)	> 100 µM (inactive)	> 100 µM (inactive)		> 100 µM (inactive)	> 100 µM (inactive)	> 100 µM (inactive)	> 100 µM (inactive)	> 100 µM (inactive)	> 100 µM (inactive)	> 100 µM (inactive)
CCOC(=O)c1ccc(/N=C2/C(=S)N(c3ccc(C(=O)OCC)cc3)C(=N)N2/N=C/c2ccccc2)cc1	2.34 µM (inactive)	6.11 µM (inactive)	17.6 µM (inactive)	28.2 µM (inactive)	14.7 µM (inactive)	6.68 µM (inactive)	21.8 µM (inactive)	> 10 µM (inactive)	30.6 µM (inactive)	20.1 µM (inactive)	1.51 µM (inactive)	14.3 µM (inactive)	23.2 µM (inactive)		5.7 µM (inactive)	15 µM (inactive)	13.2 µM (inactive)		> 10 µM (inactive)	> 10 µM (inactive)
